# Experiments:
# Experiment in all cases: relative viability (nuclei count vs DMSO), 5 days (fraction); higher = more cells survive
# NCI-H650 = test system: NCI-H650
# In short: (§1)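 Relative viability was taken as the ratio of nuclei in treated wells to nuclei in vehicle wells. Lung cancer cell lines in 1536-well plates received compounds by pin tool one day after seeding, either one drug alone or a fixed anchor-drug dose plus five library-drug doses (not always all listed) in √10 steps. Nuclei were counted on 4× images after 5 days of treatment, and values are medians of duplicate plates.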
# NCI-H441 = test system: NCI-H441
# In short: as §1
# NCI-H2085 = test system: NCI-H2085
# In short: as §1
# NCI-H2170 = test system: NCI-H2170
# In short: as §1
# NCI-H2228 = test system: NCI-H2228
# In short: as §1
# LOU-NH91 = test system: LOU-NH91
# In short: as §1
# NCI-H727 = test system: NCI-H727
# In short: as §1
# NCI-H1651 = test system: NCI-H1651
# In short: as §1
# NCI-H1650 = test system: NCI-H1650
# In short: as §1
# SW 900 = test system: SW 900
# In short: as §1
# NCI-H2023 = test system: NCI-H2023
# In short: as §1
# HARA = test system: HARA
# In short: as §1
# NCI-H2087 = test system: NCI-H2087
# In short: as §1
# EPLC-272H = test system: EPLC-272H
# In short: as §1
# SW 1573 = test system: SW 1573
# In short: as §1
# NCI-H1975 = test system: NCI-H1975
# In short: as §1
# H3255 = test system: H3255
# In short: as §1
# NCI-H23 = test system: NCI-H23
# In short: as §1
# PC-3 [JPC-3] = test system: PC-3 [JPC-3]
# In short: as §1
# NCI-H838 = test system: NCI-H838
# In short: as §1
# UMC-11 = test system: UMC-11
# In short: as §1
# LC-2-ad = test system: LC-2-ad
# In short: as §1
# NCI-H2009 = test system: NCI-H2009
# In short: as §1
smiles,measurement,setting,value
Cc1cn(-c2cc(NC(=O)c3ccc(C)c(Nc4nccc(-c5cccnc5)n4)c3)cc(C(F)(F)F)c2)cn1 [Nilotinib] + Cc1cc(Nc2cc(N3CCN(C)CC3)nc(Sc3ccc(NC(=O)C4CC4)cc3)n2)n[nH]1 [Tozasertib] (partner 0.1 µM),relative viability,NCI-H650; first compound 0.001 µM,0.665
same,relative viability,NCI-H650; first compound 0.003162 µM,0.67
same,relative viability,NCI-H650; first compound 0.01 µM,0.725
same,relative viability,NCI-H650; first compound 0.03162 µM,0.672
same,relative viability,NCI-H650; first compound 0.1 µM,0.68
same,relative viability,NCI-H441; first compound 0.001 µM,0.448
same,relative viability,NCI-H441; first compound 0.003162 µM,0.482
same,relative viability,NCI-H441; first compound 0.01 µM,0.44
same,relative viability,NCI-H441; first compound 0.03162 µM,0.429
same,relative viability,NCI-H441; first compound 0.1 µM,0.37
same,relative viability,NCI-H2085; first compound 0.001 µM,0.616
same,relative viability,NCI-H2085; first compound 0.003162 µM,0.593
same,relative viability,NCI-H2085; first compound 0.01 µM,0.585
same,relative viability,NCI-H2085; first compound 0.03162 µM,0.47
same,relative viability,NCI-H2085; first compound 0.1 µM,0.427
same,relative viability,NCI-H2170; first compound 0.001 µM,0.734
same,relative viability,NCI-H2170; first compound 0.003162 µM,0.77
same,relative viability,NCI-H2170; first compound 0.01 µM,0.795
same,relative viability,NCI-H2170; first compound 0.03162 µM,0.599
same,relative viability,NCI-H2170; first compound 0.1 µM,0.55
same,relative viability,NCI-H2228; first compound 0.003162 µM,0.223
same,relative viability,NCI-H2228; first compound 0.01 µM,0.212
same,relative viability,NCI-H2228; first compound 0.03162 µM,0.16
same,relative viability,NCI-H2228; first compound 0.1 µM,0.141
same,relative viability,LOU-NH91; first compound 0.001 µM,0.696
same,relative viability,LOU-NH91; first compound 0.003162 µM,0.708
same,relative viability,LOU-NH91; first compound 0.01 µM,0.781
same,relative viability,LOU-NH91; first compound 0.03162 µM,0.62
same,relative viability,LOU-NH91; first compound 0.1 µM,0.726
same,relative viability,NCI-H727; first compound 0.001 µM,0.599
same,relative viability,NCI-H727; first compound 0.003162 µM,0.624
same,relative viability,NCI-H727; first compound 0.01 µM,0.503
same,relative viability,NCI-H727; first compound 0.03162 µM,0.437
same,relative viability,NCI-H727; first compound 0.1 µM,0.599
same,relative viability,NCI-H1651; first compound 0.001 µM,0.458
same,relative viability,NCI-H1651; first compound 0.003162 µM,0.584
same,relative viability,NCI-H1651; first compound 0.01 µM,0.405
same,relative viability,NCI-H1651; first compound 0.03162 µM,0.249
same,relative viability,NCI-H1651; first compound 0.1 µM,0.275
same,relative viability,NCI-H1650; first compound 0.001 µM,0.329
same,relative viability,NCI-H1650; first compound 0.003162 µM,0.355
same,relative viability,NCI-H1650; first compound 0.01 µM,0.324
same,relative viability,NCI-H1650; first compound 0.03162 µM,0.324
same,relative viability,NCI-H1650; first compound 0.1 µM,0.256
same,relative viability,SW 900; first compound 0.001 µM,0.324
same,relative viability,SW 900; first compound 0.003162 µM,0.51
same,relative viability,SW 900; first compound 0.01 µM,0.389
same,relative viability,SW 900; first compound 0.03162 µM,0.34
same,relative viability,SW 900; first compound 0.1 µM,0.262
same,relative viability,NCI-H2023; first compound 0.001 µM,0.192
same,relative viability,NCI-H2023; first compound 0.003162 µM,0.225
same,relative viability,NCI-H2023; first compound 0.01 µM,0.224
same,relative viability,NCI-H2023; first compound 0.03162 µM,0.159
same,relative viability,NCI-H2023; first compound 0.1 µM,0.183
same,relative viability,HARA; first compound 0.001 µM,0.0752
same,relative viability,HARA; first compound 0.003162 µM,0.102
same,relative viability,HARA; first compound 0.01 µM,0.102
same,relative viability,HARA; first compound 0.03162 µM,0.0999
same,relative viability,HARA; first compound 0.1 µM,0.0992
same,relative viability,NCI-H2087; first compound 0.001 µM,0.195
same,relative viability,NCI-H2087; first compound 0.003162 µM,0.24
same,relative viability,NCI-H2087; first compound 0.01 µM,0.202
same,relative viability,NCI-H2087; first compound 0.03162 µM,0.19
same,relative viability,NCI-H2087; first compound 0.1 µM,0.197
same,relative viability,EPLC-272H; first compound 0.001 µM,0.212
same,relative viability,EPLC-272H; first compound 0.003162 µM,0.18
same,relative viability,EPLC-272H; first compound 0.01 µM,0.251
same,relative viability,EPLC-272H; first compound 0.03162 µM,0.182
same,relative viability,EPLC-272H; first compound 0.1 µM,0.105
same,relative viability,SW 1573; first compound 0.001 µM,0.194
same,relative viability,SW 1573; first compound 0.003162 µM,0.165
same,relative viability,SW 1573; first compound 0.01 µM,0.211
same,relative viability,SW 1573; first compound 0.03162 µM,0.173
same,relative viability,SW 1573; first compound 0.1 µM,0.15
same,relative viability,NCI-H1975; first compound 0.001 µM,0.212
same,relative viability,NCI-H1975; first compound 0.003162 µM,0.224
same,relative viability,NCI-H1975; first compound 0.01 µM,0.205
same,relative viability,NCI-H1975; first compound 0.03162 µM,0.154
same,relative viability,NCI-H1975; first compound 0.1 µM,0.218
same,relative viability,H3255; first compound 0.001 µM,0.532
same,relative viability,H3255; first compound 0.003162 µM,0.516
same,relative viability,H3255; first compound 0.03162 µM,0.48
same,relative viability,H3255; first compound 0.1 µM,0.717
same,relative viability,NCI-H23; first compound 0.001 µM,0.303
same,relative viability,NCI-H23; first compound 0.003162 µM,0.329
same,relative viability,NCI-H23; first compound 0.01 µM,0.283
same,relative viability,NCI-H23; first compound 0.03162 µM,0.247
same,relative viability,NCI-H23; first compound 0.1 µM,0.226
same,relative viability,PC-3 [JPC-3]; first compound 0.001 µM,0.736
same,relative viability,PC-3 [JPC-3]; first compound 0.003162 µM,0.932
same,relative viability,PC-3 [JPC-3]; first compound 0.01 µM,0.91
same,relative viability,PC-3 [JPC-3]; first compound 0.03162 µM,0.621
same,relative viability,PC-3 [JPC-3]; first compound 0.1 µM,0.426
same,relative viability,NCI-H838; first compound 0.001 µM,0.219
same,relative viability,NCI-H838; first compound 0.003162 µM,0.298
same,relative viability,NCI-H838; first compound 0.01 µM,0.294
same,relative viability,NCI-H838; first compound 0.03162 µM,0.228
same,relative viability,NCI-H838; first compound 0.1 µM,0.221
same,relative viability,UMC-11; first compound 0.001 µM,0.191
same,relative viability,UMC-11; first compound 0.003162 µM,0.19
same,relative viability,UMC-11; first compound 0.01 µM,0.179
same,relative viability,UMC-11; first compound 0.03162 µM,0.166
same,relative viability,UMC-11; first compound 0.1 µM,0.134
same,relative viability,LC-2-ad; first compound 0.001 µM,0.371
same,relative viability,LC-2-ad; first compound 0.003162 µM,0.337
same,relative viability,LC-2-ad; first compound 0.01 µM,0.382
same,relative viability,LC-2-ad; first compound 0.03162 µM,0.384
same,relative viability,LC-2-ad; first compound 0.1 µM,0.403
same,relative viability,NCI-H2009; first compound 0.001 µM,0.622
same,relative viability,NCI-H2009; first compound 0.003162 µM,0.853
same,relative viability,NCI-H2009; first compound 0.01 µM,0.577
same,relative viability,NCI-H2009; first compound 0.03162 µM,0.372
same,relative viability,NCI-H2009; first compound 0.1 µM,0.383

# Source: the supplement of paper PMC10307832
